From patent US12673083B2, “TREM-1 inhibitors for the treatment of vaso-occlusions and tissue injuries in patients suffering from sickle cell disease” (INSERM (INSTITUT NATIONAL DE LA SANTÉ ET DE LA RECHERCHE …, priority 2019, dated 2026)
Entries after “also recorded” stand apart in the source; their conditions may differ.

What was measured:
neutrophils = assay: Intravital microscopy of neutrophils in post-capillary venous microcirculation of the cremaster after TNFα injection; format: in vivo, HbSS knock-in sickle cell mice; details: HbSS mice
Method: (§1) Experiments were performed on 4-6 week-old sex matched healthy control (Hba^tm1(HBA)Tow Hbb^tm3(HBG1,HBB) Tow) (HbAA (hα/hα::β^A/β^A)) and SCD (Hba^tm1(HBA)Tow Hbb^tm2(HBG1,HBB*)Tow) (HbSS (hα/hα::βS/βS)) mice as well as SAD transgenic sickle mice with or without Trem-1 gene deletion (TREM-1 KO). The animal protocol was approved by the Paris Descartes University Animal Care and Use Committee and the French Ministry of Agriculture. Animals were anesthetized with isoflurane, and whole blood was collected from each mouse via retro-orbital venipuncture by heparinized microcapillaries. In anesthetized animals, organs were immediately removed and divided into two and either immediately frozen in liquid nitrogen or fixed in 10% formalin and embedded in paraffin for histology.
To characterize in vivo the effects of the TREM-1 pathway on neutrophils recruitment, we used a protocol as previously described (Koehl B et al. Haematologica. 2017 July; 102(7):1161-1172). Male mice were anaesthetized by spontaneous inhalation of isoflurane and maintained at 37° C. with a heating pad. The left jugular vein was cannulated to administer drugs and antibodies. […] 2 h after TNFα injection, the cremaster muscle was incised and neutrophils were monitored by injection of labeled Phycoerythrin-conjugated anti-Ly6G antibody (0.05 μg/g body weight, clone RB6-8C5, BD Biosciences Pharmingen). Venules were visualized with an intravital microscope (Zeiss Examiner D1) equipped with a water-immersion objective (Zeiss Plan-Apochromat 20×/1.0 NA) and fluorescence excitation was made through a Lambda DG-4 high-speed wavelength switcher (Sutter Instrument). […] Images were analyzed using SlideBook 6.0 software (Intelligent Imaging Innovations). The neutrophil rolling flux fraction, adhesion density, adhesion efficiency and transmigration were measured using playback assessment of 3-min digital time-lapse videos and 3D z-stack recordings of single unbranched venules (3 venules per mouse, 20-40 μm) from 2.5 hours to 5 hours after the TNFα challenge at 30-min intervals. […]

Ter 119+ erythrocytes = assay: Hypoxia-reoxygenation experimental vaso-occlusive crisis: vascular congestion with erythrocytes on histological sections; format: in vivo, sickle cell mice (SS)
Method: as §1
(§2) In order to test the pharmacological inhibition of TREM-1 on erythrocyte vascular congestion and neutrophils infiltrates, homozygous HbS (SS) mice were subjected to 14 hours hypoxia (8% oxygen) and then 1 hours reoxygenation (21% oxygen) to trigger acute vaso-occlusive crisis as previously described (Sabaa N et al. J Clin Invest. 2008 May; 118(5):1924-33). The TREM-1 inhibitory peptide for each of the hypoxia-reoxygenation experiments was administered by intraperitoneal injection just prior to the onset of hypoxia, as well as at the end of hypoxia, at the beginning of the reoxygenation phase. These conditions reproduce a situation of severe hypoxia for SCD, provoking crises and damage related to ischemia-reperfusion. After this experiment, the tissues were analyzed in the same way as for the SS mice in the base state.

neutrophils (PMNs) = assay: Hypoxia-reoxygenation experimental vaso-occlusive crisis: abundance of neutrophils on histological sections; format: in vivo, sickle cell mice (SS)
Method: as §1, §2

[1] = histological sections of lung, SS LR12 vs SS PBS

LR12: 12 amino-acid TREM-1 inhibitory peptide LQEEDAGEYGCM, N-terminal 12 amino-acids of LR17 (TLT-1 derived) (Synthetic LR12)
neutrophil rolling (neutrophils; between 3 h and 4 h30 post-injection of TNFα, LR12 6 mg/kg 10 min before and 3 mg/kg 3 h15 after TNFα, 2way ANOVA P value=0.0041): significant reduction; also recorded: reduces | neutrophil transmigration (neutrophils; from 3 h to 5 h post-TNFα, 2way ANOVA P value <0.0001): significant reduction; also recorded: reduces | neutrophil adhesion (neutrophils; throughout the experiment after TNFα, 2way ANOVA P value <0.0001): significant reduction; also recorded: reduces | vascular congestion with Ter 119+ erythrocytes, liver (Ter 119+ erythrocytes; histological sections of liver, SS LR12 vs SS PBS, intraperitoneal, hypoxia-reoxygenation): significant reduction | vascular congestion with Ter 119+ erythrocytes, lung (Ter 119+ erythrocytes; [1]): not in lung sections | vascular congestion with Ter 119+ erythrocytes, renal medulla (Ter 119+ erythrocytes; histological sections of renal medulla, SS LR12 vs SS PBS): significant reduction | vascular congestion with Ter 119+ erythrocytes, spleen (Ter 119+ erythrocytes; histological sections of spleen, SS LR12 vs SS PBS): significant reduction | vascular congestion of tissues (Ter 119+ erythrocytes; tissues of sickle cell mice (summary statement, FIGS. 3A-3D)): significant reduction | abundance of neutrophils, liver (% green fluorescent surface) (neutrophils (PMNs); histological sections of liver, SS LR12 vs SS PBS): significant reduction | abundance of neutrophils, lung (% green fluorescent surface) (neutrophils (PMNs); [1]): significant reduction | abundance of neutrophils in tissues (neutrophils (PMNs); tissues of sickle cell mice during experimental vaso-occlusive crisis (summary statement, FIGS. 4A and 4B)): significant reduction
